Columns and labels:
[1] = tested on: lung cancer and colorectal cancer cells; experiment: cancer cell growth study (Cell Titer Glo); format: cell-based; conditions: 6 days
Protocol: FIGS. 7A-D. Chemical inhibition of Wnt-mediated cellular responses in cancer. FIG. 7A. Growth-inhibitory effects of IWR and IWP compounds on cancerous cells. Cells derived from either lung or colon cancer, with known molecular changes that result in aberrant Wnt pathway response, were treated with increasing concentrations of either IWR-4 or IWP-1 for 6 days with medium and compounds replenished daily. Cell viability was measured using Cell-Titer Glo assays. FIG. 7B. Biochemical changes of Wnt pathway components in cancerous cells treated with either IWR or IWP compounds. Lysates from H460, or DLD-1 cells were treated with IWR or IWP and Western blotted for either Dvl2, Axin2, Axin1, or Actin. Whereas both cell lines express […], Axin2 expression is absent in H460 cells. FIG. 7C. Genetic evidence for non-β-catenin dependent Wnt-mediated signalling in cancerous cells. […]
In experiments involving IWR and IWP treatments, cancer cells were seeded into a 24 well format (2.5K cells/well) in the presence of the noted Wnt pathway inhibitors (0.5% DMSO final) Media and compound changed every 24 hours for 5 days. On day 6, ATP levels were quantitated via cell titer glo assay (Promega). […] ATP levels were measured 120 hrs later via Cell Titer Glo assay (Promega).

[2] = tested on: zebrafish gastrointestinal (GI) tract; experiment: homeostatic renewal of the zebrafish GI tract (BrdU incorporation, histology); format: in vivo
Protocol: (§1) 6 month-old zebrafish were incubated 8 or 14 days at 28.5° C. in aquarium water supplemented with 10 μM IWR or in 0.1% DMSO as a control. Fish were fed standard diet, and solutions were changed daily. At the end of the exposure, zebrafish were incubated in 1 mM BrdU in aquarium water for 2 hrs at room temperature, then washed several times in aquarium water, anesthetized with 0.1% Tricaine, and fixed in 4% paraformaldehyde for 48 hrs at 4° C. The intestine was dissected out, dehydrated, paraffin embedded and sectioned at […] intervals. Sections were stained with Hematoxylin and Eosin or processed for BrdU immunohistochemistry as described (Shepard et al., 2005). Sections from 8 animals each from IWR and DMSO groups were independently scored by four blinded observers. The total number of intestinal folds and total number of BrdU-positive nuclei in the mid and distal sections of the intestine were counted from each section. For caudal fin regeneration assays, zebrafish, 3-6 months of age, were anaesthetized in 0.2% Tricaine and half of the fin was resected using a razor blade to remove Amputees were reared at 31° C. in tanks containing either 300 ml of water with DMSO or IWR (10 μM). Water and compounds were replenished daily for a total assay period of 4 days.

[3] = tested on: caudal fin regeneration in zebrafish; experiment: caudal fin regeneration assay in zebrafish; format: in vivo; conditions: for caudal fin regeneration after mechanical resection: zebrafish, compound in water 10 μM, 4 days
Protocol: FIG. 25. […] Arrows indicate the points of resection.
as §1

Wnt/β-catenin pathway = experiment: Western blot of Wnt/β-catenin pathway markers (LRP6 and Dvl2 phosphorylation, β-catenin accumulation) in L-Wnt-STF cells; format: cell-based, mouse; conditions: L-Wnt cells
Excerpt: FIG. 3. Biochemical evidence for Wnt/β-catenin pathway inhibition by IWR and IWP compounds. […] Cellular lysates were subjected to Western blot analysis to determine levels of LRP6 and Dvl2 phosphorylation, and β-catenin accumulation, all biochemical events associated with Wnt/β-catenin pathway activity. Predictably, IWPs blocked all three biochemical events, whereas IWRs appear to block β-catenin accumulation without affecting LRP6 and Dv12 phosphorylation. Kif3A and tubulin serve as loading controls.
(§2) Biochemical studies involving L-Wnt-STF or DLD-1 cells were performed in either 48- or 6-well format with IWR (10 μM) or IWP (5 μM) compounds and/or cycloheximide (100 μM) in a 48 hr assay period. Targeting of APC using RNAi in L-cells was achieved by transfecting cells with SMARTPool APC siRNAs (50 nM; Dharmacon). E-cadherin depletion studies were performed at 4° C. using DLD-1 cells lysed in PBS/1% NP-40/protease inhibitors. For Wnt3A phase separation assays, murine Porcupine (C isoform) and human Wnt3A-myc were transfected into HEK 293 cells (6 well format, 400K cells/well) as appropriate using Effectene transfection reagent (QIAGEN). After 48 hrs of incubation, cells were lysed for 15 min, RT with PL buffer (distilled water, 10 mM tris-HCl, 150 mM NaCl)/1% TritionX-114. […]

β-catenin = β-catenin accumulation in L-cells treated with APC siRNAs; format: cell-based; conditions: mouse L-cells treated with APC siRNAs
Excerpt: FIGS. 5A-H. Stabilization of the Axin2 destruction complex by IWR compounds. FIG. 5A. IWR compounds block β-catenin accumulation induced by loss of APC tumor suppressor. […] FIG. 5B. IWRs block aberrant Wnt/β-catenin pathway activity in the colorectal cancer (CRC) cells. Aberrant Wnt/β-catenin pathway activity in DLD-1 cells, CRC cells which harbor a loss-of-function mutation in APC, is abrogated by IWR compounds. Pathway activity was monitored using the STF reporter and normalized to RL control reporter as before. FIG. 5C. IWRs induce accumulation of Axin2 protein. Western blot analysis of proteins involved in regulating β-catenin levels in DLD-1 cells reveal accumulation of Axin2 protein in cells treated with IWR compounds with little change in expression levels of other pathway components. Note that the APC protein is truncated in these cells. FIG. 5D. Levels of β-catenin in CRC cells available for Wnt response are decreased in the presence of IWR compounds. […] FIG. 5E. IWR stabilizes Axin2 protein. Rapid destruction of Axin2 protein is apparent in DLD-1 cells treated with the protein synthesis inhibitor cycloheximide. […] FIG. 5F. […] FIG. 5G. […] FIG. 5H. A proposed model of IWR action. Addition of IWR to cells induces stabilization of Axin2 protein with consequential increase in β-catenin destruction. […]

[4] = tested on: Wnt/β-catenin pathway response induced by Wnt1, Wnt2, or Wnt3a; experiment: STF reporter, pathway activity induced by Wnt1, Wnt2 or Wnt3a; format: cell-based; conditions: FL normalized to RL
Protocol: FIGS. 9A-C. […] FIG. 9A. Summary of results relating to IWR and IWP compounds from the screening process. Wnt pathway tests were performed in either cells responding to autonomously-produced Wnt protein (L-Wnt-STF cells) or exogenously provided Wnt in conditioned medium (HEK293 cells). FIG. 9B. […] Left: schematic of Wnt-Gaussia luciferase (Wnt-GL) fusion protein used to monitor levels of secreted Wnt protein in the cell medium. Right: levels of Wnt-GL but not GL secreted from cells treated with IWP compounds are decreased as compared to cells treated with carrier. The Wnt-GL protein elicits levels of Wnt/β-catenin pathway response similar to that of Wnt3a protein (data not shown). FIG. 9C. […] FL activity was normalized to control RL activity as before.

[5] = tested on: Axin2 and β-catenin in DLD-1 cells; experiment: biochemical studies of destruction complex components in DLD-1 cells (Western blot, E-cadherin depletion, cycloheximide); format: cell-based
Excerpt: FIGS. 5A-H. Stabilization of the Axin2 destruction complex by IWR compounds. FIG. 5A. IWR compounds block β-catenin accumulation induced by loss of APC tumor suppressor. […] FIG. 5B. IWRs block aberrant Wnt/β-catenin pathway activity in the colorectal cancer (CRC) cells. Aberrant Wnt/β-catenin pathway activity in DLD-1 cells, CRC cells which harbor a loss-of-function mutation in APC, is abrogated by IWR compounds. Pathway activity was monitored using the STF reporter and normalized to RL control reporter as before. FIG. 5C. IWRs induce accumulation of Axin2 protein. Western blot analysis of proteins involved in regulating β-catenin levels in DLD-1 cells reveal accumulation of Axin2 protein in cells treated with IWR compounds with little change in expression levels of other pathway components. Note that the APC protein is truncated in these cells. FIG. 5D. Levels of β-catenin in CRC cells available for Wnt response are decreased in the presence of IWR compounds. […] FIG. 5E. IWR stabilizes Axin2 protein. Rapid destruction of Axin2 protein is apparent in DLD-1 cells treated with the protein synthesis inhibitor cycloheximide. […] FIG. 5F. […] FIG. 5G. […] FIG. 5H. A proposed model of IWR action. Addition of IWR to cells induces stabilization of Axin2 protein with consequential increase in β-catenin destruction.
as §2, with “Targeting” for “Biochemical studies involving L-Wnt-STF or DLD-1 cells were performed in either 48- or 6-well format with IWR (10 μM) or IWP (5 μM) compounds and/or cycloheximide (100 μM) in a 48 hr assay period. Targeting”, “TritionX-114. Lysate was briefly chilled on ice, pelleted for 10 min 4° C., and the supernatant combined with an equal volume of PL buffer/3.5% TX-114.” for “TritionX-114.”

Wnt3A = Wnt3A phase separation (lipidation) assay in HEK 293 cells; format: cell-based, human; conditions: detergent solubility fractionation assay
Protocol: as §2, with “TritionX-114. Lysate was briefly chilled on ice, pelleted for 10 min 4° C., and the supernatant combined with an equal volume of PL buffer/3.5% TX-114. Solutions were rotated for 15 min at 4° C., placed at 37° C. for 5 mM followed by an additional centrifugation for 5 mM at 2000 g, RT. Distinct phases were collected and combined with PL buffer to a total volume of 1 mL Samples were chilled on ice, ConA sepharose (GE Healthcare) added, and samples rotated for 2 hrs at 4° C. Beads washed 2× with PL buffer, and a Western blot performed with eluted proteins using an anti-c-myc antibody.” for “TritionX-114.”

Row | SMILES | inhibition of cancerous cell growth [1] | adverse signs in treated fish ([2]; zebrafish treated for periods longer than 4 days) | BrdU-labeled cells at the base of intestinal folds ([2]; zebrafish, 10 μM in water, 8 days) | fin regeneration after removal of the chemical ([3]; zebrafish bred 7 d in water containing compound, then removal) | caudal fin regeneration after mechanical resection [3] | accumulation of β-catenin (Wnt/β-catenin pathway) | β-catenin accumulation induced by loss of APC (β-catenin) | pathway activity induced by Wnt1, Wnt2, or Wnt3a [4] | levels of β-catenin not bound to E-cadherin ([5]; DLD-1 cells) | Axin2 protein turn-over ([5]; DLD-1 cells with cycloheximide) | expression of Wnt/β-catenin target gene Axin2 ([5]; DLD-1 cells, exposure for 2 h) | levels of lipidated Wnt3A (Wnt3A)
1 | COc1ccc(-n2nc(C(=O)NCC(=O)Nc3nc4ccc(OC)cc4s3)c3ccccc3c2=O)cc1 [IWP-1] | consistently more effective than IWR-4 |  |  |  |  |  |  |  |  |  |  | 
2 | O=C(Nc1cccc2cccnc12)c1ccc(N2C(=O)[C@@H]3[C@H](C2=O)[C@@H]2C=C[C@H]3C2)cc1 [IWR-1] |  | lethargy and decreased appetite | decreased number | able to regenerate tissue to nearly normal levels after chemical removal | suppressed fin regeneration | inhibit accumulation of β-catenin | can be blocked | decreased | decreased | little turn-over of Axin2 | decrease in the expression of Axing | 
3 | Cc1ccc2nc(NC(=O)CSc3nc4c(c(=O)n3-c3ccccc3)SCC4)sc2c1 [IWP-2] |  |  |  |  | failed to do so |  |  | decreased |  |  |  | decreased
